The results in this text go back to US7273866B2, “2-aryl thiazole derivatives as KCNQ modulators” (Bristol-Myers Squibb Company, priority 2002, dated 2007).

The assay concerns KCNQ channels. In words: Thallium flux assay for KCNQ channel openers. The class given is cell-based. The conditions noted are these: HEK-293 cells stably transfected with a KCNQ family member; for Min. conc. response: minimal active concentration: lowest concentration giving signal amplitude >= four standard deviations of negative controls; for EC50: thallium flux, 10 point concentration series. Here is the method: Thallium Flux Assay for KCNQ channel Openers. The thallium assay is a modification of that published by Weaver and is referenced in its entirety (Weaver, C. D. WO 02/31508, 2002).
Approximately 20,000 cells/well of an HEK-293 cell line stably transfected with one of the members of the KCNQ family were plated into clear-bottom, black-walled, poly-D-lysine coated, 384 well assay plates in 20 μl/well of low chloride plating medium. Low chloride plating medium was composed of the following: sodium gluconate, 109 mM; potassium gluconate, 5.4 mM; hemi-calcium gluconate, 3.6 mM; magnesium sulfate, 0.8 mM; sodium bicarbonate, 26.2 mM; sodium phosphate monobasic, 1.2 mM; glutamine, 2 mM; glucose, 5 mM; 4-(2-hydroxyethyl)-1-piperazineethanesulfonic acid (HEPES) (pH 7.3) 10 mM, MEM vitamin solution (10× concentration of vitamins, Gibco/LifeTechnologies 11120-052) and MEM amino acid solution (1× concentration of amino acids, Gibco/LifeTechnologies 11130-051).
Following overnight incubation in a 5% CO2 incubator at 37° C., the cells in the plates were loaded with 20 μl/well of a dye loading solution containing the commercially available thallium-sensitive fluorescent dye BTC-AM, the acetomethoxy ester of BTC (see U.S. Pat. No. 5,501,980) (2 μM) and pluronic acid F-127 (Molecular Probes P 6867) (0.02% w/v) in chloride free assay buffer. Chloride free assay buffer was composed of the following: sodium gluconate, 140 mM; potassium gluconate, 2.5 mM; hemi-calcium gluconate, 6 mM; hemi-magnesium gluconate, 2 mM; glucose, 5 mM; HEPES (pH 7.3), 10 mM.
Following incubation in the dye loading solution for from 45-90 min at room temperature, the dye loading solution was removed by aspiration and replaced with 40 μl/well of chloride free assay buffer.
Prior to addition to cell plates, test compound and standard compounds were dissolved in DMSO to 3 mM concentration. Compounds were then diluted from the 3 mM stock to 100-fold over the final assay concentration in DMSO. Finally, compounds in DMSO were diluted from 100-fold over the final assay concentration to 5-fold over the final assay concentration in chloride free assay buffer.
Ten μl/well of compounds at 5-fold over the final assay concentration were then added to the cell plates. This represents a 1:5 dilution, yielding the final test concentration. The wells used for test compounds were A1-P20. Wells A21-P22 contained a standard opener and a maximally efficacious concentration (positive control). Wells A23-P24 contained chloride free assay buffer containing 1% DMSO (negative control).
Following addition of test compounds, the plates were loaded onto the Molecular Devices FLIPR. The 488 nm line of the argon laser was used to excite the BTC and the emission filter was a 540(+/−30) nm. Images were collected at 1 Hz. Ten seconds of baseline were collected and then the FLIPR was used to add 13 μl/well of a stimulus buffer composed of 7.5 mM Tl2SO4 in chloride free assay buffer. Images were collected for an additional 60 seconds.
For data analysis, the amplitude of the average of the negative controls was subtracted from all wells. The amplitudes of the test compounds were then compared to the value of four standard deviations of the negative control wells. The lowest concentration of a test compound sufficient to generate a signal amplitude greater than or equal to four standard deviations from the amplitude of the negative controls was defined as the minimal active concentration.
For generating EC50 values, compounds were serially diluted in 1:3 volume increments to produce a 10 point concentration series. EC50 values were calculated by fitting the resulting amplitudes to a single-site logistic equation. EC50 was defined as the concentration of test compound required to yield 50% of the maximal response. Maximal response (Maximal opening) was the largest signal amplitude divided by the negative control amplitude generated by any concentration of a test compound. […]

The compound `Cc1cccnc1-c1nc(C(F)(F)F)c(C(=O)N[C@@H](C)c2cccc(-c3cccnc3)c2)s1` [Example 73, (S)-2-(3-methylpyridin-2-yl)-4-(trifluoromethyl)-N-[1-[3-(3-pyridinyl)phenyl]ethyl]-5-thiazolecarboxamide] came in with a Min. conc. response of 0.3 µM and an EC50 of 0.05 to 1 µM.
On to `COc1ccc(-c2nc(C(F)(F)F)c(C(=O)NC(C)c3cccc(CN4CCCC4)c3)s2)cc1OC` (centres unmarked) [Example 36, 2-(3,4-dimethoxyphenyl)-4-(trifluoromethyl)-N-[1-[3-[(1-pyrrolidinyl)methyl]phenyl]ethyl]-5-thiazolecarboxamide], for which the Min. conc. response was 10 µM and the EC50 lay within 1 to 20 µM.
`O=C(NCc1cccc(OC(F)(F)F)c1)c1sc(-c2ccccc2CN2CCOCC2)nc1C(F)(F)F` [Example 109] showed a Min. conc. response of 3 µM.
As for `CCN(CC)CCOc1ccccc1-c1nc(C(F)(F)F)c(C(=O)NCc2cccc(F)c2)s1` [Example 54], the Min. conc. response stood at 0.3 µM and the EC50 was in the range of 1 to 20 µM.
`COc1ccc(F)cc1-c1nc(C(F)(F)F)c(C(=O)NC(C)c2cccc(N(C)C)c2)s1` (centres unmarked) [Example 42, 2-(5-fluoro-2-methoxyphenyl)-4-(trifluoromethyl)-N-[1-[3-(dimethylamino)phenyl]ethyl]-5-thiazolecarboxamide] gave a Min. conc. response of 10 µM and an EC50 of 0.05 to 1 µM.
Consider `COc1ccccc1-c1nc(C(F)(F)F)c(C(=O)NC(C)c2cccc(Br)c2)s1` (centres unmarked) [Example 96], for which the Min. conc. response was 3 µM.
Still for that read-out and setting: for `CC(NC(=O)c1sc(-c2ccc(F)cc2)nc1C(F)(F)F)c1cccc(C(F)(F)F)c1` (centres unmarked) [Example 83] the value was 0.3 µM.
Still for that read-out and setting: for `CCN(Cc1ccncc1)Cc1ccccc1-c1nc(C(F)(F)F)c(C(=O)NCc2cccc(OC)c2)s1` [Example 114] the value was 3 µM.
`CC(NC(=O)c1sc(-c2ccccc2CN(C)C)nc1C(F)(F)F)c1cccc(OC(F)(F)F)c1` (centres unmarked) [Example 74] returned a Min. conc. response of 3 µM and an EC50 of 1 to 20 µM.
`CC(NC(=O)c1sc(-c2ccccc2Cl)nc1C(F)(F)F)c1cccc(N(C)C)c1` (centres unmarked) [Example 50, 2-(2-chlorophenyl)-4-(trifluoromethyl)-N-[1-[3-(dimethylamino)phenyl]ethyl]-5-thiazolecarboxamide] showed a Min. conc. response of 0.3 µM and an EC50 of 0.05 to 1 µM.
On to `O=C(NCc1cccc(F)c1)c1sc(-c2cccc(F)c2)nc1C(F)(F)F` [Example 93], for which the Min. conc. response is 10 µM.
Compound `CCN(Cc1ccncc1)Cc1ccccc1-c1nc(C(F)(F)F)c(C(=O)NC(C)c2cccc(-c3cccnc3)c2)s1` (centres unmarked) [Example 117] displayed a Min. conc. response of 0.3 µM.
Same read-out and setting: with `CCN(Cc1ccncc1)Cc1ccccc1-c1nc(C(F)(F)F)c(C(=O)NC(C)c2cccc(CN3CCOCC3)c2)s1` (centres unmarked) [Example 116] the figure was 3 µM.
Regarding `CCN(CC)Cc1ccccc1-c1nc(C(F)(F)F)c(C(=O)NC(C)c2cccc(CN3CCOCC3)c2)s1` (centres unmarked) [Example 106], the Min. conc. response was found to be 10 µM.
`CC(NC(=O)c1sc(-c2ncccc2CN2CCOCC2)nc1C(F)(F)F)c1cccc(C(F)(F)F)c1` (centres unmarked) [Example 124] returned a Min. conc. response of 3 µM.
Compound `CC(NC(=O)c1sc(-c2ccccc2Cl)nc1C(F)(F)F)c1cccc(OC(F)(F)F)c1` (centres unmarked) [Example 49, 2-(2-chlorophenyl)-4-(trifluoromethyl)-N-[1-[3-(trifluoromethoxy)phenyl]ethyl]-5-thiazolecarboxamide] returned a Min. conc. response of 0.3 µM and an EC50 of 0.05 to 1 µM.
Take `COc1cccc([C@H](C)NC(=O)c2sc(-c3ccccc3CN3CCOCC3)nc2C(F)(F)F)c1` [Example 111]: the Min. conc. response is 0.3 µM.
`COc1cccc(-c2nc(C(F)(F)F)c(C(=O)NCc3cccc(F)c3)s2)c1` [Example 85] had a Min. conc. response of 30 µM.
Regarding `COc1ccc(F)cc1-c1nc(C(F)(F)F)c(C(=O)NC(C)c2cccc(OC(F)(F)F)c2)s1` (centres unmarked) [Example 41, 2-(5-fluoro-2-methoxyphenyl)-4-(trifluoromethyl)-N-[1-[3-(trifluoromethoxy)phenyl]ethyl]-5-thiazolecarboxamide], the Min. conc. response was determined as 10 µM and the EC50 lay within 0.05 to 1 µM.
As to `CC(NC(=O)c1sc(-c2cccc(F)c2)nc1C(F)(F)F)c1cccc(OC(F)(F)F)c1` (centres unmarked) [Example 95], the Min. conc. response is 0.3 µM.
As for `CCN(Cc1ccncc1)Cc1ccccc1-c1nc(C(F)(F)F)c(C(=O)N[C@@H](C)c2cccc(OC)c2)s1` [Example 60], the Min. conc. response was 0.3 µM and the EC50 is 0.05 to 1 µM.
`CCN(Cc1ccncc1)Cc1cccnc1-c1nc(C(F)(F)F)c(C(=O)NC(C)c2cccc(CN3CCOCC3)c2)s1` (centres unmarked) [Example 63] gave a Min. conc. response of 30 µM and an EC50 of 0.05 to 1 µM.
For `CCN(CC)CCOc1ccccc1-c1nc(C(F)(F)F)c(C(=O)N[C@@H](C)c2cccc(OC)c2)s1` [Example 101], the Min. conc. response was 3 µM.
`CC(NC(=O)c1sc(-c2ccccc2CN2CCOCC2)nc1C(F)(F)F)c1cccc(OC(F)(F)F)c1` (centres unmarked) [Example 108]: the Min. conc. response was determined as 0.3 µM.
The compound `COc1cccc([C@H](C)NC(=O)c2sc(-c3ccccc3CN(C)C)nc2C(F)(F)F)c1` [Example 76] gave a Min. conc. response of 10 µM and an EC50 of 0.05 to 1 µM.
The compound `CCN(Cc1cccnc1-c1nc(C(F)(F)F)c(C(=O)N[C@@H](C)c2cccc(-c3cccnc3)c2)s1)C(C)C` [Example 68, (S)-2-[3-[ethyl(2-propyl)aminomethyl]pyridin-2-yl]-4-(trifluoromethyl)-N-[1-[3-(3-pyridinyl)phenyl]ethyl]-5-thiazolecarboxamide] came in with a Min. conc. response of 30 µM and an EC50 of 1 to 20 µM.
On to `COc1cccc(CNC(=O)c2sc(-c3cc(F)ccc3OC)nc2C(F)(F)F)c1` [Example 45, 2-(5-fluoro-2-methoxyphenyl)-4-(trifluoromethyl)-N-[(3-methoxyphenyl)methyl]-5-thiazolecarboxamide], for which the Min. conc. response worked out at 3 µM and the EC50 lay in the range of 1 to 20 µM.
The matching figures for `COc1ccccc1-c1nc(C(F)(F)F)c(C(=O)NCc2cccc(F)c2)s1` [Example 27, 2-(2-methoxyphenyl)-4-(trifluoromethyl)-N-(3-fluorophenyl)methyl-5-thiazolecarboxamide]: 3 µM and 1 to 20 µM.
As to `CCN(Cc1cccnc1-c1nc(C(F)(F)F)c(C(=O)NC(C)c2cccc(OC(F)(F)F)c2)s1)C(C)C` (centres unmarked) [Example 70, 2-[3-[ethyl(2-propyl)aminomethyl]pyridin-2-yl]-4-(trifluoromethyl)-N-[1-[3-(trifluoromethoxy)phenyl]ethyl]-5-thiazolecarboxamide], the Min. conc. response was determined as 3 µM and the EC50 lay within 0.05 to 1 µM.
Consider `CC(NC(=O)c1sc(-c2csc3ccccc23)nc1C(F)(F)F)c1cccc(CN2CCCC2)c1` (centres unmarked) [Example 103], for which the Min. conc. response turned out to be 0.3 µM.
`COc1ccc(F)cc1-c1nc(C(F)(F)F)c(C(=O)NCc2cccc(F)c2)s1` [Example 44, 2-(5-fluoro-2-methoxyphenyl)-4-(trifluoromethyl)-N-[(3-fluorophenyl)methyl]-5-thiazolecarboxamide] yielded a Min. conc. response of 3 µM and an EC50 of 0.05 to 1 µM.

For orientation: EC50 means the concentration giving half of the maximal effect.
